Experimental data from ChEMBL document CHEMBL3286290, “In vitro screening of pentamidine analogs against bacterial and fungal strains” (Bioorg Med Chem Lett, 2014).
≈ marks a conversion by molar mass, not a printed value. Where a name gives a salt, the structure may show the parent alone.

Tests used:
Type in all cases: functional
[1] = tested on: Saccharomyces cerevisiae; assay: Antifungal activity against Saccharomyces cerevisiae ATCC 9763 assessed as growth inhibition by M7-A6 method
[2] = Antifungal activity against Zygosaccharomyces rouxii ATCC 28253 assessed as growth inhibition by M7-A6 method
[3] = tested on: Candida parapsilosis; assay: Antifungal activity against Candida parapsilosis ATCC 22019 assessed as growth inhibition by M7-A6 method; settings: Lodderomyces parapsilosis
[4] = tested on: Staphylococcus aureus; assay: Antibacterial activity against erythromycin, amikacin, clindamycin, ciprofloxacin, methicillin-resistant Staphylococcus aureus 15K/11 assessed as growth inhibition by M7-A6 method
[5] = tested on: Staphylococcus aureus; assay: Antibacterial activity against penicillin, erythromycin, amikacin, clindamycin, ciprofloxacin, methicillin-resistant Staphylococcus aureus 495/11 assessed as growth inhibition by M7-A6 method
[6] = tested on: Staphylococcus aureus; assay: Antibacterial activity against penicillin, erythromycin, amikacin, clindamycin, ciprofloxacin, methicillin-resistant Staphylococcus aureus 572/12 assessed as growth inhibition by M7-A6 method
[7] = tested on: Candida albicans; assay: Antifungal activity against Candida albicans ATCC 10231 assessed as growth inhibition by M7-A6 method
[8] = tested on: Escherichia coli; assay: Antibacterial activity against Escherichia coli ATCC 10536 assessed as growth inhibition by M7-A6 method
[9] = tested on: Staphylococcus aureus; assay: Antibacterial activity against Staphylococcus aureus ATCC 6538 assessed as growth inhibition by M7-A6 method
[10] = tested on: Aspergillus brasiliensis; assay: Antifungal activity against Aspergillus brasiliensis ATCC 16404 assessed as growth inhibition by M7-A6 method
[11] = tested on: Micrococcus luteus; assay: Antibacterial activity against Micrococcus luteus ATCC 10240 assessed as growth inhibition by M7-A6 method
[12] = tested on: Staphylococcus aureus; assay: Antibacterial activity against penicillin, erythromycin, clindamycin, ciprofloxacin, methicillin-resistant Staphylococcus aureus 19K/11 assessed as growth inhibition by M7-A6 method
[13] = tested on: Escherichia coli; assay: Antibacterial activity against Escherichia coli ATCC 8739 assessed as growth inhibition by M7-A6 method
[14] = tested on: Staphylococcus aureus; assay: Antibacterial activity against Staphylococcus aureus ATCC 6538P assessed as growth inhibition by M7-A6 method
[15] = tested on: Bacillus cereus; assay: Antibacterial activity against Bacillus cereus ATCC 11778 assessed as growth inhibition by M7-A6 method
[16] = tested on: Bacillus subtilis; assay: Antibacterial activity against Bacillus subtilis ATCC 6633 assessed as growth inhibition by M7-A6 method
[17] = tested on: Candida albicans; assay: Antifungal activity against Candida albicans ATCC 2091 assessed as growth inhibition by M7-A6 method
[18] = tested on: Pseudomonas aeruginosa; assay: Antibacterial activity against Pseudomonas aeruginosa ATCC 9027 assessed as growth inhibition by M7-A6 method
[19] = tested on: Pseudomonas aeruginosa; assay: Antibacterial activity against Pseudomonas aeruginosa ATCC 15442 assessed as growth inhibition by M7-A6 method
[20] = tested on: Staphylococcus aureus; assay: Antibacterial activity against penicillin, erythromycin, amikacin, clindamycin, ciprofloxacin, methicillin-resistant Staphylococcus aureus 573/12 assessed as growth inhibition by M7-A6 method
[21] = tested on: Micrococcus luteus; assay: Antibacterial activity against Micrococcus luteus ATCC 9341 assessed as growth inhibition by M7-A6 method

MIC [1] [µM]	MIC [2] [µM]	MIC [3] [µM]	MIC [7] [µM]	MIC [8] [µM]	MIC [9] [µM]	MIC [10] [µM]	MIC [11] [µM]	MIC [13] [µM]	MIC [14] [µM]	MIC [15] [µM]	MIC [16] [µM]	MIC [17] [µM]	MIC [18] [µM]	MIC [19] [µM]	MIC [21] [µM]	SMILES	other results
		10600 (≈ 3770 µg/mL)	> 21100	21100 (≈ 7500 µg/mL)	21100 (≈ 7500 µg/mL)		1060 (≈ 377 µg/mL)	21100 (≈ 7500 µg/mL)	10600 (≈ 3770 µg/mL)	1060 (≈ 377 µg/mL)	2110 (≈ 750 µg/mL)	> 21100	> 21100	> 21100	1060 (≈ 377 µg/mL)	CN(CCOc1ccc(C(=N)N)cc1)CCOc1ccc(C(=N)N)cc1	
		> 16300	> 16300	16300 (≈ 6760 µg/mL)	8130 (≈ 3380 µg/mL)		410 (≈ 170 µg/mL)	8130 (≈ 3380 µg/mL)	8130 (≈ 3380 µg/mL)	100 (≈ 41.5 µg/mL)	810 (≈ 337 µg/mL)	> 16300	> 16300	> 16300	200 (≈ 83.1 µg/mL)	COc1cc(C(=N)N)ccc1OCCN(C)CCOc1ccc(C(=N)N)cc1OC	
7040 (≈ 4240 µg/mL)	7040 (≈ 4240 µg/mL)	7040 (≈ 4240 µg/mL)	7040 (≈ 4240 µg/mL)	7040 (≈ 4240 µg/mL)	70 (≈ 42.1 µg/mL)	7040 (≈ 4240 µg/mL)	7 (≈ 4.21 µg/mL)	7040 (≈ 4240 µg/mL)	70 (≈ 42.1 µg/mL)	88 (≈ 52.9 µg/mL)	70 (≈ 42.1 µg/mL)	7040 (≈ 4240 µg/mL)	7040 (≈ 4240 µg/mL)	7040 (≈ 4240 µg/mL)	2.8 (≈ 1.68 µg/mL)	COc1cc(C(=N)N)cc(OC)c1OCCN(CCOc1c(OC)cc(C(=N)N)cc1OC)S(=O)(=O)c1ccccc1	
> 12800		> 12800	> 12800	6410 (≈ 3950 µg/mL)	320 (≈ 197 µg/mL)	> 12800	64 (≈ 39.5 µg/mL)	6410 (≈ 3950 µg/mL)	320 (≈ 197 µg/mL)	320 (≈ 197 µg/mL)	320 (≈ 197 µg/mL)	> 12800	6410 (≈ 3950 µg/mL)	6410 (≈ 3950 µg/mL)	38 (≈ 23.4 µg/mL)	COc1cc(C(=N)N)cc(OC)c1OCCN(CCOc1c(OC)cc(C(=N)N)cc1OC)S(=O)(=O)c1ccc(N)cc1	
180 (≈ 97.5 µg/mL)	180 (≈ 97.5 µg/mL)	370 (≈ 200 µg/mL)	92 (≈ 49.8 µg/mL)	740 (≈ 401 µg/mL)	42 (≈ 22.7 µg/mL)	7380 (≈ 4000 µg/mL)	42 (≈ 22.7 µg/mL)	370 (≈ 200 µg/mL)	42 (≈ 22.7 µg/mL)	42 (≈ 22.7 µg/mL)	42 (≈ 22.7 µg/mL)	370 (≈ 200 µg/mL)	7380 (≈ 4000 µg/mL)	7380 (≈ 4000 µg/mL)	15 (≈ 8.12 µg/mL)	COc1cc(C(=N)N)ccc1OCCN(CCOc1ccc(C(=N)N)cc1OC)S(=O)(=O)c1ccccc1	
210 (≈ 101 µg/mL)	10 (≈ 4.82 µg/mL)	100 (≈ 48.2 µg/mL)	210 (≈ 101 µg/mL)	210 (≈ 101 µg/mL)	49 (≈ 23.6 µg/mL)	8220 (≈ 3960 µg/mL)	16 (≈ 7.71 µg/mL)	210 (≈ 101 µg/mL)	49 (≈ 23.6 µg/mL)	16 (≈ 7.71 µg/mL)	82 (≈ 39.5 µg/mL)	210 (≈ 101 µg/mL)	1640 (≈ 790 µg/mL)	1640 (≈ 790 µg/mL)	100 (≈ 48.2 µg/mL)	N=C(N)c1ccc(OCCN(CCOc2ccc(C(=N)N)cc2)S(=O)(=O)c2ccccc2)cc1	
4460 (≈ 2050 µg/mL)	110 (≈ 50.7 µg/mL)	890 (≈ 410 µg/mL)	890 (≈ 410 µg/mL)	220 (≈ 101 µg/mL)	54 (≈ 24.9 µg/mL)	8920 (≈ 4110 µg/mL)	18 (≈ 8.29 µg/mL)	220 (≈ 101 µg/mL)	54 (≈ 24.9 µg/mL)	110 (≈ 50.7 µg/mL)	89 (≈ 41 µg/mL)	1780 (≈ 820 µg/mL)	1780 (≈ 820 µg/mL)	4460 (≈ 2050 µg/mL)	3.5 (≈ 1.61 µg/mL)	COc1cc(C(=N)N)cc(OC)c1OCCCCCOc1c(OC)cc(C(=N)N)cc1OC	

SMILES	MIC [1] [µM]	MIC [2] [µM]	MIC [3] [µM]	MIC [7] [µM]	MIC [8] [µM]	MIC [9] [µM]	MIC [10] [µM]	MIC [11] [µM]	MIC [13] [µM]	MIC [14] [µM]	MIC [15] [µM]	MIC [16] [µM]	MIC [17] [µM]	MIC [18] [µM]	MIC [19] [µM]	MIC [21] [µM]	other results
N=C(N)c1ccc(OCCCCCOc2ccc(C(=N)N)cc2)cc1 [PENTAMIDINE HYDROCHLORIDE]	280	67	4.4	110	280	22	22	4.4	280	67	1.1	67	110	1110	1670	1.1	MIC [4]: 1110 µM; MIC [5]: 1110 µM; MIC [6]: 560 µM; MIC [12]: 140 µM; MIC [20]: 140 µM
